Results on six molecules are retold here after ChEMBL document CHEMBL3045919, “Disease-controlling effect of a novel fungicide pyribencarb against Botrytis cinerea” (J Pestic Sci, 2010).

Data set [1] concerns Botrytis cinerea. Put plainly: Antifungal activity against Botryotinia fuckeliana in Cucumber seedlings assessed as reduction of gray mold diseases compound spraying was performed 3 hr prior to inoculation by preventive effect assay. The format is functional, organism-based.
The subject of data set [2] is Botrytis cinerea. Put plainly: Antifungal activity against Botryotinia fuckeliana in Kidney bean assessed as Kidney bean gray mold diseased pods in field trials at 500 ug/ml 3 applications at 9 days intervals (reference value: 21%). The format is functional.
The subject of data set [3] is Botrytis cinerea. Put plainly: Antifungal activity against Botryotinia fuckeliana in Eggplant seedlings assessed as Eggplant gray mold diseased flowers and fruits in field trials at 200 ug/ml 3 applications at 7 days intervals (reference value: 52.7%). It counts as functional.
Data set [4] deals with Botrytis cinerea. Put plainly: Antifungal activity against Botryotinia fuckeliana in Eggplant seedlings assessed as Eggplant gray mold diseased flowers and fruits in field trials at 500 ug/ml 3 applications at 7 days intervals (reference value: 52.7%). The format is functional.
Data set [5] concerns Botrytis cinerea. As to the kind of experiment: Antifungal activity against Botryotinia fuckeliana in Cucumber seedlings assessed as reduction of gray mold diseases at 3 ug/ml compound spraying was performed 48 hr after inoculation by lesion development inhibitory assay. It counts as functional. The arrangement: scale not given: the % may be the effect or the level left.
The test system of data set [6] is Botrytis cinerea. Put plainly: Antifungal activity against Botryotinia fuckeliana in Kidney bean assessed as Kidney bean gray mold diseased pods in field trials at 200 ug/ml 3 applications at 9 days intervals (reference value: 21%). It counts as functional.
Data set [7] concerns Botrytis cinerea. Put plainly: Antifungal activity against Botryotinia fuckeliana in Eggplant seedlings assessed as Eggplant gray mold diseased flowers and fruits in field trials at 100 ug/ml 3 applications at 7 days intervals (reference value: 52.7%). The format is functional.
Data set [8] has as its system Botrytis cinerea. As to the kind of experiment: Antifungal activity against Botryotinia fuckeliana in Cucumber seedlings assessed as reduction of gray mold diseases. The format is functional, organism-based.
The subject of data set [9] is Botrytis cinerea. As to the kind of experiment: Antifungal activity against Botryotinia fuckeliana in Cucumber seedlings assessed as reduction gray mold diseases at 3 ug/ml compound spraying was performed 3 hr prior to inoculation by preventive effect assay. The format is functional. On the set-up: scale not given: the % may be the effect or the level left.
The next data set relates to Cucumis sativus. Put plainly: Translaminar activity against kidney bean gray mold assessed as drug transport in Phaseolus vulgaris (kidney bean) from adaxial to abaxial at 100 to 200 ug/ml measured after 3 days. The format is ADME, organism-based. The note with it: in vivo, 72 h.
In data set [10] the test system is Botrytis cinerea. Put plainly: Antifungal activity against Botryotinia fuckeliana in Cucumber seedlings assessed as reduction of gray mold diseases at 3 ug/ml compound spraying was performed 24 hr after inoculation by curative effect assay. The format is functional. The arrangement: scale not given: the % may be the effect or the level left.
Data set [11] concerns Botrytis cinerea. As to the kind of experiment: Antifungal activity against Botryotinia fuckeliana in Kidney bean assessed as Kidney bean gray mold diseased pods in field trials at 100 ug/ml 3 applications at 9 days intervals (reference value: 21%). The format is functional.
For data set [12], the system named is Botrytis cinerea. As to the kind of experiment: Antifungal activity against Botryotinia fuckeliana in Cucumber seedlings cotyledon stage assessed as suppression of gray mold diseases measured after 7 days by rain fastness activity assay. The format is functional, organism-based.

In brackets after ≈: the same amount, converted by molar mass. Activity calls are given as the source filed them. The calls are words filed in the database; no cut-off is given here.

`O=C(Nc1ccccc1-c1ccc(Cl)cc1)c1cccnc1Cl` [BOSCALID]: the concentration giving a half-maximal response (EC50) with Botrytis cinerea [1] came out at 0.8 µg/mL (≈ 2.33 µM).
Same read-out and setting: the result for `CC1(C(=O)Nc2ccc(O)c(Cl)c2Cl)CCCCC1` [FENHEXAMID] reads 2.13 µg/mL (≈ 7.05 µM).
As for `O=[N+]([O-])c1cc(C(F)(F)F)c(Cl)c([N+](=O)[O-])c1Nc1ncc(C(F)(F)F)cc1Cl` [FLUAZINAM], the Activity in the data set on Botrytis cinerea [2] was 7.8%.
Turning to `N#Cc1c[nH]cc1-c1cccc2c1OC(F)(F)O2` [FLUDIOXONIL], the Activity with Botrytis cinerea [3] is recorded as 16.8%.
In the case of `CC12CC1(C)C(=O)N(c1cc(Cl)cc(Cl)c1)C2=O` (stereo not drawn) [PROCYMIDONE], the Activity is recorded as 12.3% with Botrytis cinerea [4] and 4.6% with Botrytis cinerea [2].
`COC(=O)NCc1cc(/C(C)=N/OCc2cccc(C)n2)ccc1Cl` [Pyribencarb]: the Activity is given as 88.5% in the data set on Botrytis cinerea [5]; 3.7% in the data set on Botrytis cinerea [6]; 9.8% with Botrytis cinerea [7]; 72.1% in the data set with Botrytis cinerea [9]; 3.4% in the data set with Botrytis cinerea [3]; 80.4% in the data set on Botrytis cinerea [10]. The Activity in the data set on Botrytis cinerea [11] is reported as 5.3%. Also, the 50% effective concentration (EC50) in the data set on Botrytis cinerea [1] is 0.55 µg/mL (≈ 1.52 µM); in the data set on Botrytis cinerea [8], 0.006 µg/mL (≈ 0.0166 µM). In the data set on Botrytis cinerea [8], the minimum inhibitory concentration (MIC) was 0.1 µg/mL (≈ 0.276 µM). The Drug transport result in the data set with Cucumis sativus was “Active”. In addition, in the data set with Botrytis cinerea [12], the inhibition entry was “Active”.
